Reference: patent US20030104030A1, “Stent for blood vessel and material for stent for blood vessel” (priority 2002, published 2003)

Assay: amount of tranilast in the stents, measured by high performance liquid chromatography
Format: physicochemical
Conditions: impregnation in stent with supercritical CO2, 40 to 140° C.
Experimental: In the experimental example 2, a plural number of luminal stents, formed of plural biodegradable polymer material, in particular plural fibers of biodegradable polymer, in which the drug was impregnated as the pressure and the temperature of CO2 were varied, were formed, and measurements were made of the amount of the drug for each of these stents.
Of the stents, obtained in Examples 14 to 25, the amount of tranilast was measured using a high performance liquid chromatography.

COc1ccc(C=CC(=O)Nc2ccccc2C(=O)O)cc1OC [tranilast, N-(3,4-dimethoxycinnamoyl) anthranilic acid]
thermal decomposition of drug during impregnation: without undergoing thermal decomposition
